ChEMBL document CHEMBL1130465, “Peptidic prodrugs of novel aminomethyl-THF 1-methylcarbapenems” (1997)
≈ marks a conversion by molar mass, not a printed value.

Tests used:
Type in all cases: functional
[1] = tested on: Acinetobacter calcoaceticus; assay: In vitro antimicrobial activity against Acinetobacter calcoaceticus GC 756 strain
Citrobacter freundii = assay: In vitro antimicrobial activity against Citrobacter freundii GC 2211 strain
Enterococcus faecium = assay: In vitro antimicrobial activity against Enterococcus faecium GC 1182 strain
Enterococcus faecalis = assay: In vitro antimicrobial activity against Enterococcus faecalis GC 842 strain
Escherichia coli [2] = assay: In vitro antimicrobial activity against Escherichia coli ATCC 25922 strain
Escherichia coli [3] = assay: In vitro antimicrobial activity against Escherichia coli GC 1792 strain
Escherichia coli [4] = assay: In vitro antimicrobial activity against Escherichia coli GC 2205 strain
Enterobacter cloacae = assay: In vitro antimicrobial activity against Enterobacter cloacae GC 2209 strain
Mus musculus [5] = species: Mus musculus; assay: animal or person
Description: Tested for oral activity against Escherichia coli #311 infection in mice after single oral dose(SOD)

Mus musculus [6] = species: Mus musculus; assay: animal or person; remark: listed apart in the source
Description: Tested for oral activity against Escherichia coli #311 infection in mice after single subcutaneous dose(SSC)

Mus musculus [7] = assay: Tested for oral activity against Staphylococcus aureus smith infection in mice after single oral dose(SOD)
Morganella morganii = assay: In vitro antimicrobial activity against Morganella morganii GC 2213 strain
Pseudomonas aeruginosa [8] = assay: In vitro antimicrobial activity against Pseudomonas aeruginosa ATCC 27853 strain
Pseudomonas aeruginosa [9] = assay: In vitro antimicrobial activity against Pseudomonas aeruginosa GC 1544 strain
Staphylococcus aureus [10] = assay: In vitro antimicrobial activity against Staphylococcus aureus GC 2220 strain
Staphylococcus aureus [11] = assay: In vitro antimicrobial activity against Staphylococcus aureus ATCC 29213 strain
[12] = tested on: Stenotrophomonas maltophilia; assay: In vitro antimicrobial activity against Xanthomonas maltophilia GC 562 strain
[13] = Ratio of ED50 of single oral dose to ED50 of single subcutaneous dose against Staphylococcus aureus smith infection in mice
Mus musculus [14] = assay: Tested for oral activity against Staphylococcus aureus smith infection in mice after single subcutaneous dose(SSC)
[15] = Acinetobacter calcoaceticus, read-out: MIC
[16] = Citrobacter freundii, read-out: MIC
[17] = Enterococcus faecium, read-out: MIC
[18] = Enterococcus faecalis, read-out: MIC
[19] = Escherichia coli, read-out: MIC
[20] = Mus musculus, po, read-out: ED50
[21] = Morganella morganii, read-out: MIC
[22] = Pseudomonas aeruginosa, ATCC 27853, read-out: MIC
[23] = Pseudomonas aeruginosa, read-out: MIC
[24] = Staphylococcus aureus, read-out: MIC

| Structure (SMILES) | MIC [1, 15] [mg/L] | MIC (Citrobacter freundii; [16]) [mg/L] | MIC (Enterococcus faecium; [17]) [mg/L] | MIC (Enterococcus faecalis; [18]) [mg/L] | MIC (Escherichia coli [2]) [mg/L] | MIC (Escherichia coli [3]; [19]) [mg/L] | MIC (Escherichia coli [4]) [mg/L] | MIC (Enterobacter cloacae) [mg/L] | MIC (Morganella morganii; [21]) [mg/L] | MIC (Pseudomonas aeruginosa [8]; [22]) [mg/L] | MIC (Pseudomonas aeruginosa [9]; [23]) [mg/L] | MIC (Staphylococcus aureus [10]; [24]) [mg/L] | MIC (Staphylococcus aureus [11]) [mg/L] | MIC [12] [mg/L] | ED50 (Mus musculus [5]; [20]) [mg/kg] | ED50 (Mus musculus [6]; Mus musculus, read-out: ED50) [mg/kg] | ED50 (Mus musculus [7]; [20]) [mg/kg] | Ratio [13] | ED50 (Mus musculus [14]; Mus musculus, read-out: ED50) [mg/kg] | other results |
| --- | --- | --- | --- | --- | --- | --- | --- | --- | --- | --- | --- | --- | --- | --- | --- | --- | --- | --- | --- | --- |
| C[C@H]1C(SC2COC(CN)C2)=C(C(=O)O)N2C(=O)[C@H]([C@@H](C)O)C12 (stereo in doubt; cis) | – | – | – | – | – | – | – | – | – | – | – | – | – | – | – | – | – | 22 | – | MIC [1]: 20 mg/L (≈ 58.4 µM); MIC (Citrobacter freundii): <0.06 mg/L; MIC (Enterococcus faecium): 128 mg/L (≈ 374 µM); MIC (Enterococcus faecalis): 2 mg/L (≈ 5.84 µM); MIC (Escherichia coli [3]): <0.06 mg/L; ED50 (Mus musculus [5]): 3.5 mg/kg; ED50 (Mus musculus [6]): 0.28 mg/kg; ED50 (Mus musculus [7]): 1.1 mg/kg; MIC (Morganella morganii): 0.5 mg/L (≈ 1.46 µM); MIC (Pseudomonas aeruginosa [8]): 8 mg/L (≈ 23.4 µM); MIC (Pseudomonas aeruginosa [9]): 16 mg/L (≈ 46.7 µM); MIC (Staphylococcus aureus [10]): 4 mg/L (≈ 11.7 µM); ED50 (Mus musculus [14]): 0.05 mg/kg |
| C[C@H]1C(S[C@@H]2COC[C@@H]2CN)=C(C(=O)O)N2C(=O)[C@H]([C@@H](C)O)C12 (stereo not given in full) | 16 (≈ 46.7 µM) | 0.5 (≈ 1.46 µM) | > 128 | 8 (≈ 23.4 µM) | 0.12 (≈ 0.35 µM) | 0.12 (≈ 0.35 µM) | 0.12 (≈ 0.35 µM) | 0.12 (≈ 0.35 µM) | 2 (≈ 5.84 µM) | 16 (≈ 46.7 µM) | 32 (≈ 93.5 µM) | 16 (≈ 46.7 µM) | 0.12 (≈ 0.35 µM) | > 128 | – | – | – | – | – | – |
| C[C@H]1C(SC2COC(CN)C2)=C(C(=O)O)N2C(=O)[C@H]([C@@H](C)O)C12 (stereo in doubt; trans) | – | 0.06 (≈ 0.175 µM) | 128 (≈ 374 µM) | 2 (≈ 5.84 µM) | < 0.06 | 0.06 (≈ 0.175 µM) | < 0.06 | < 0.06 | 0.25 (≈ 0.73 µM) | 4 (≈ 11.7 µM) | 8 (≈ 23.4 µM) | 8 (≈ 23.4 µM) | < 0.06 | > 128 | 3.7 | 0.27 | 1.7 | 16 | – | MIC [1]: 1 mg/L (≈ 2.92 µM); ED50 (Mus musculus [14]): 0.11 mg/kg |
| C[C@@H](O)[C@H]1C(=O)N2C(C(=O)O)=C(S[C@@H]3CCO[C@@H]3CN)[C@H](C)[C@H]12 | 2 (≈ 5.84 µM) | ≤ 0.06 | – | – | ≤ 0.06 | ≤ 0.06 | ≤ 0.06 | ≤ 0.06 | 0.5 (≈ 1.46 µM) | 8 (≈ 23.4 µM) | 16 (≈ 46.7 µM) | 1 (≈ 2.92 µM) | ≤ 0.06 | > 128 | 3.8 | 0.34 | 0.88 | 22 | 0.04 | MIC (Enterococcus faecium): 64 mg/L (≈ 187 µM); MIC (Enterococcus faecalis): 0.5 mg/L (≈ 1.46 µM) |

More lines, main results first:

| MIC [1, 15] [mg/L] | MIC (Citrobacter freundii; [16]) [mg/L] | MIC (Enterococcus faecium; [17]) [mg/L] | MIC (Enterococcus faecalis; [18]) [mg/L] | MIC (Escherichia coli [2]) [mg/L] | MIC (Escherichia coli [3]; [19]) [mg/L] | MIC (Escherichia coli [4]) [mg/L] | MIC (Enterobacter cloacae) [mg/L] | MIC (Morganella morganii; [21]) [mg/L] | MIC (Pseudomonas aeruginosa [8]; [22]) [mg/L] | MIC (Pseudomonas aeruginosa [9]; [23]) [mg/L] | MIC (Staphylococcus aureus [10]; [24]) [mg/L] | MIC (Staphylococcus aureus [11]) [mg/L] | MIC [12] [mg/L] | Structure (SMILES) | ED50 (Mus musculus [5]; [20]) [mg/kg] | ED50 (Mus musculus [6]; Mus musculus, read-out: ED50) [mg/kg] | ED50 (Mus musculus [7]; [20]) [mg/kg] | Ratio [13] | ED50 (Mus musculus [14]; Mus musculus, read-out: ED50) [mg/kg] | other results |
| --- | --- | --- | --- | --- | --- | --- | --- | --- | --- | --- | --- | --- | --- | --- | --- | --- | --- | --- | --- | --- |
| 8 (≈ 20 µM) | 0.5 (≈ 1.25 µM) | > 128 | 2 (≈ 5.01 µM) | < 0.06 | < 0.06 | < 0.06 | < 0.06 | 0.5 (≈ 1.25 µM) | 8 (≈ 20 µM) | 64 (≈ 160 µM) | 8 (≈ 20 µM) | 0.12 (≈ 0.3 µM) | > 128 | C[C@H]1C(S[C@@H]2CCO[C@@H]2CNC(=O)CN)=C(C(=O)O)N2C(=O)[C@H]([C@@H](C)O)C12 (stereo not given in full) | 1.4 | 0.56 | 0.41 | 2.7 | 0.15 | – |
| 16 (≈ 38.7 µM) | 4 (≈ 9.67 µM) | > 128 | 16 (≈ 38.7 µM) | 0.25 (≈ 0.605 µM) | 0.25 (≈ 0.605 µM) | 0.25 (≈ 0.605 µM) | 1 (≈ 2.42 µM) | 2 (≈ 4.84 µM) | 64 (≈ 155 µM) | 128 (≈ 310 µM) | 8 (≈ 19.3 µM) | 0.5 (≈ 1.21 µM) | > 128 | C[C@@H](N)C(=O)NC[C@@H]1COC[C@@H]1SC1=C(C(=O)O)N2C(=O)[C@H]([C@@H](C)O)C2[C@H]1C (stereo not given in full) | – | – | 4.5 | 41 | 0.11 | – |
| 64 (≈ 140 µM) | 4 (≈ 8.78 µM) | > 128 | 2 (≈ 4.39 µM) | ≤ 0.06 | 0.25 (≈ 0.549 µM) | ≤ 0.06 | – | 2 (≈ 4.39 µM) | 64 (≈ 140 µM) | 128 (≈ 281 µM) | 32 (≈ 70.2 µM) | 0.25 (≈ 0.549 µM) | > 128 | CC[C@@H](C)[C@@H](N)C(=O)NC[C@H]1OCC[C@H]1SC1=C(C(=O)O)N2C(=O)[C@H]([C@@H](C)O)C2[C@H]1C (stereo not given in full) | 0.58 | 1.1 | 0.21 | 0.75 | 0.28 | – |
